Data published in patent US11142531B2, “Cyano substituted heteroarylpyrimidinone derivative, preparation method and use thereof” (ZHEJIANG HISUN PHARMACEUTICAL CO., LTD., priority 2017, dated 2021).

Tests used:
recombinant human ACC1 = recombinant human ACC1 (Homo sapiens (Human), UniProt Q13085); test: Inhibition of enzymatic activity of ACC1 (ADP-Glo chemiluminescence); type: biochemical; conditions: recombinant human ACC1 protein 2 nM, ATP 20 μM, acetyl-CoA 10 μM, NaHCO3 30 mM
Protocol: (§1) The degree of inhibition of the enzymatic activity of recombinant human ACC1, ACC2 proteins under in-vitro conditions by the preferred compounds of the present disclosure is determined by the following method.
The principle of the method was based on the reaction of ACC protein-catalyzed acetyl-CoA to form malonyl-CoA. ATP was consumed during this reaction and ADP was produced. The produced ADP was reconverted into ATP by using ADP-Glo™ Kinase Kit from Promega. This part of ATP reacted with the luciferase-fluorescence in the kit, and generated chemiluminescent signals. Thus, by measuring the intensity of chemiluminescent signal, the amount of ADP produced in the catalytic reaction was reflected, thereby indirectly determining the enzymatic activity of ACC protein and the effect of the tested compound on the enzymatic activity. The main reagents used included ACC1, ACC2 proteins (purchased from BPS bioscience, ACC1 Art. No. 50200, ACC2 Art. No. 50201), acetyl-CoA (acetyl-CoA, purchased from Sigma, Art. No. A2056), NaHCO3 (purchased from Sigma, Art. No. S6014), ADP-Glo™ Kinase assay kit (purchased from Promega, Art. No. V9102).
The test procedure was briefly described as follows: firstly, a 1× buffer solution required for the reaction was prepared, comprising: 50 mM HEPES (pH7.4 purchased from Invitrogen, Art. No. 15630), 2 mM magnesium chloride (MgCl2, purchased from Sigma, Art. No. M1028), 2 mM potassium citrate (Potassium citrate, purchased from Sigma, Art. No. 89306), 0.01% Brij-35 detergent (purchased from Merck, Art. No. 203728), 2 mM DTT (purchased from Sigma, Art. No. D0632). The test compound powder was dissolved in DMSO to prepare a stock solution having a concentration of 10 mM, followed by three-fold dilution to prepare the concentration required for the test, and each compound was set at 10 concentration points ranging from 10 μm to 0.5 nM. Firstly, appropriate amount of ACC protein (2 nM) was added to a 384-well microplate, and then diluted test compound solutions were added to each well. A duplicate well was provided at each concentration, and a solution control group (blank group) and a negative control group (DMSO group) were set at the same time. The 384-well plates were then shaken on a microwell plate oscillator and incubated for 15 minutes at room temperature. Thereafter, a substrate mixture containing ATP, acetyl-CoA and NaHCO3 which was diluted with the aforementioned buffer solution was added to each well to start the reaction, and the final concentrations of the three components were respectively ATP 20 μM, acetyl-CoA 10 μM, and NaHCO3 30 mM. After reacting for 30 minutes at room temperature, the corresponding reaction solution and detection solution were added to each well according to the method in the specification of ADP-Glo™ Kinase assay kit (referring to the specification of the kit for specific methods). Finally, the relative light unit (RLU) values of each well were tested using an Envision 2104 multi-function microplate reader (Perkin Elmer). The percentage inhibition rate of a compound at a concentration on ACC enzyme activity was calculated by the following formula: Inhibition rate %=[(RLU average value of negative control wells−RLU average value of blank control wells)−(RLU average values of test wells−RLU average values of blank control wells)]/(RLU average values of negative control wells−RLU average values of blank control wells)*100
Finally, nonlinear regression analysis of the logarithm of the concentration of the compound and the percentage inhibition rate of the corresponding concentration was carried out in the GraphPad Prism5 software to obtain the half maximal inhibitory concentration (IC50) of the compound.

[1] = Oral pharmacokinetic research in SD rats (plasma and liver, LC/MS/MS); type: in vivo; conditions: male, Sprague-Dawley (SD), rat, intragastric, 10 mg/kg
Protocol: SD rat was used as the experimental animal. The drug concentrations in plasma and liver at different times were tested after the rats were intragastrically administered with the compound of Example 19 by LC/MS/MS methods, so as to research the pharmacokinetic characteristics of compound of present disclosure in rats.
An appropriate amount of experimental drug was weighed, and 0.5% sodium carboxymethylcellulose (CMC-Na) was added, and the mixture was milled to prepare a 1 mg/mL suspension;
6 healthy adult male rats were divided into 2 groups, fasted overnight and respectively intragastrically administered with the drug at a dosage of 10 mg/kg, at a volume of 10 mL/kg. The rats were feed 2 h after the administration.
Blood was collected by jugular vein puncture, and about 0.25 mL was collected for each sample, which was anticoagulated by using heparin sodium, and the samples were placed on ice after collection. The time points of blood collection were as follows:
The first group of animals: blood collection time: before administration, and 0.083 h, 0.25 h, 0.5 h, 1 h, 2 h, 4 h, 6 h, 8 h and 24 h after administration.
The second group of animals: the animals were euthanized 0.5 h after administration, and the liver tissues were collected, 3 rats/time point.
Blood samples were collected and placed on ice, and plasma was separated by centrifugation (centrifugation conditions: 8000 rpm, 6 min, 2-8° C.). The collected plasma was stored at −80° C. before analysis.
The content of the test compound in the plasma and liver of the rats after intragastrically administration was analyzed by LC-MS/MS.

recombinant human ACC2 = recombinant human ACC2 (Homo sapiens (Human), UniProt O00763); test: Inhibition of enzymatic activity of ACC2 (ADP-Glo chemiluminescence); type: biochemical; conditions: recombinant human ACC2 protein 2 nM, ATP 20 μM, acetyl-CoA 10 μM, NaHCO3 30 mM
Chain of recombinant human ACC2 (O00763 whole entry): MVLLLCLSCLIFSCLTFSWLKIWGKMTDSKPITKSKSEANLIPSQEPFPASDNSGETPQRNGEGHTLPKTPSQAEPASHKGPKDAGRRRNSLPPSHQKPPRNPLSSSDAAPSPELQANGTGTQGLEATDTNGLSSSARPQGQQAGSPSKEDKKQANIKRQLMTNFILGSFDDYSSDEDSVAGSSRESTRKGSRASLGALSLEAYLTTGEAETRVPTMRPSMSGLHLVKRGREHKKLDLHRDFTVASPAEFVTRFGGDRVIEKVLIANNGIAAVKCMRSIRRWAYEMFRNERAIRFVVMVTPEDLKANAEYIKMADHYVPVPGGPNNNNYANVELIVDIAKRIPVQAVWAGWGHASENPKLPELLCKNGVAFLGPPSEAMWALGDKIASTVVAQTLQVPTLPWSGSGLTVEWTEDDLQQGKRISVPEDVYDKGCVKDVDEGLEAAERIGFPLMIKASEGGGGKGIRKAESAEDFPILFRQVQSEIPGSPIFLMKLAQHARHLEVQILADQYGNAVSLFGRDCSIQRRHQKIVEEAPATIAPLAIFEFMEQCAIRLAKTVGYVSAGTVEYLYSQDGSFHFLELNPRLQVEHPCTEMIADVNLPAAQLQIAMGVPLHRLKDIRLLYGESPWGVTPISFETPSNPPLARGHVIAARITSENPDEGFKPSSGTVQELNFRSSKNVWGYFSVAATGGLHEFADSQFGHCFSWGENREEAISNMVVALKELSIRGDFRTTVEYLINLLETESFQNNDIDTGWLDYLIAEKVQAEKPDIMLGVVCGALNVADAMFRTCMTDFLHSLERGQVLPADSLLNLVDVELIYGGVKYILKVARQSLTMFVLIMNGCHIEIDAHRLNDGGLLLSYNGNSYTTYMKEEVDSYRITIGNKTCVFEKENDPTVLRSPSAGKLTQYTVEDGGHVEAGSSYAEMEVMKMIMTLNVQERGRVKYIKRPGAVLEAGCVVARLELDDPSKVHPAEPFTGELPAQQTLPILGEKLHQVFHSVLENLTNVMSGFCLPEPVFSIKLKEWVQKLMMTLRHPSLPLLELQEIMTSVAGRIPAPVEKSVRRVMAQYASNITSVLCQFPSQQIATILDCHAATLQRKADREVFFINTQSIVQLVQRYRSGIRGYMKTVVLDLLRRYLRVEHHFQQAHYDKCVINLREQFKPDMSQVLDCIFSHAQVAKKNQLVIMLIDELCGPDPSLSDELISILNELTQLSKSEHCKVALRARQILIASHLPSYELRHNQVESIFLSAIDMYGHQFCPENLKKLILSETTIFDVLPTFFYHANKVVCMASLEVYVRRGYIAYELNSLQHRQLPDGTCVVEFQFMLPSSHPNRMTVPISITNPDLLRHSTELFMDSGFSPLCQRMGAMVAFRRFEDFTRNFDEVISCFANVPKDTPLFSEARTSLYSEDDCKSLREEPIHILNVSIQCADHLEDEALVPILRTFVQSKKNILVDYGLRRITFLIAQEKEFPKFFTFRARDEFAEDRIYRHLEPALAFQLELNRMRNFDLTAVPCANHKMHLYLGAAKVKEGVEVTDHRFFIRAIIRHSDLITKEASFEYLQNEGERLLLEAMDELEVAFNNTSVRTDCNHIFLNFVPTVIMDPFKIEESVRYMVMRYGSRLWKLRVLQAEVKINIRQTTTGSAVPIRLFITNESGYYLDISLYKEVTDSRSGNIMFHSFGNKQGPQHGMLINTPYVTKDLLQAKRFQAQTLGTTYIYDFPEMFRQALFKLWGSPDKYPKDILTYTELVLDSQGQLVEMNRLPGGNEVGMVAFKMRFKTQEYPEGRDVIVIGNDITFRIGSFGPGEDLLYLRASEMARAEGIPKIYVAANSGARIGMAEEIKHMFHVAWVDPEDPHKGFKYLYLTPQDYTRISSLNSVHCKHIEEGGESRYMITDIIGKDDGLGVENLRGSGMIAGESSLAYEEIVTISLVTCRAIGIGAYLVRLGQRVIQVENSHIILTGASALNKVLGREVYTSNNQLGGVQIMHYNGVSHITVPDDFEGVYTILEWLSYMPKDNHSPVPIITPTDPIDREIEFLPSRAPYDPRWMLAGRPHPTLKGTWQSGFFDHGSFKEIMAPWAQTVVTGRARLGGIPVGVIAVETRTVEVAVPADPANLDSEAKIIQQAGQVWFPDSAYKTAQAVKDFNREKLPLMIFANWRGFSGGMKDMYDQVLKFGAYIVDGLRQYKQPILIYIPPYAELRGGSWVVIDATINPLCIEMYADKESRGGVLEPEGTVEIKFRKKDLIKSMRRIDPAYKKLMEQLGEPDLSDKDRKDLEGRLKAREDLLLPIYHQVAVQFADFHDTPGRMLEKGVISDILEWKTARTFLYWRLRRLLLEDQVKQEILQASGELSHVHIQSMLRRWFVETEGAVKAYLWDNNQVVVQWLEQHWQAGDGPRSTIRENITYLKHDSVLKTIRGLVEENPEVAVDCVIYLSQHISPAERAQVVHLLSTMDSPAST
Protocol: as §1
The principle of the method was based on the reaction of ACC protein-catalyzed acetyl-CoA to form malonyl-CoA. ATP was consumed during this reaction and ADP was produced. The produced ADP was reconverted into ATP by using ADP-Glo™ Kinase Kit from Promega. This part of ATP reacted with the luciferase-fluorescence in the kit, and generated chemiluminescent signals. […]
The test procedure was briefly described as follows: firstly, a 1× buffer solution required for the reaction was prepared, comprising: 50 mM HEPES (pH7.4 purchased from Invitrogen, Art. No. 15630), 2 mM magnesium chloride (MgCl2, purchased from Sigma, Art. No. M1028), 2 mM potassium citrate (Potassium citrate, purchased from Sigma, Art. No. 89306), 0.01% Brij-35 detergent (purchased from Merck, Art. No. 203728), 2 mM DTT (purchased from Sigma, Art. No. D0632). […] Finally, the relative light unit (RLU) values of each well were tested using an Envision 2104 multi-function microplate reader (Perkin Elmer). […]

Compound	IC50 (recombinant human ACC1)	also measured
CCOc1ccc(F)cc1[C@H](Cn1c(=O)n(C(C)(C)C(=O)O)c(=O)c2c(C)c(C#N)sc21)OC1CCOCC1 [Example 19, (R)-2-(6-cyano-1-(2-(2-ethoxy-5-fluorophenyl)-2-((tetrahydro-2H-pyran-4-yl)oxy)ethyl)-5-methyl-2,4-dioxo-1,2-dihydrothiopheno[2,3-d]pyrimidin-3(4H)-yl)-2-methylpropionic acid]	2.7 nM	concentration at 0.5 h ([1]; oral, liver, 0.5 h after administration, read-out: drug concentration in the liver): 46800 ± 14000 ng/mL; Cmax ([1]; po, plasma, read-out: Blood concentration Cmax): 920 ± 362 ng/mL; AUC(0-inf) ([1]; po, plasma, read-out: Curve area AUC0-∞): 1940 ± 1190 ng·h/mL; half-life ([1]; po, plasma, read-out: Half-life period T½ (converted)): 203 ± 39 min; MRT ([1]; po, plasma, read-out: Residence time MRT): 2.82 ± 0.34 h; IC50 (recombinant human ACC2): 6 nM
COc1ccc(F)cc1[C@H](Cn1c(=O)n(C(C)(C)C(=O)O)c(=O)c2c(C)c(C#N)sc21)OC1CCOCC1 [Example 11, (R)-2-(6-Cyano-1-(2-(5-fluoro-2-methoxyphenyl)-2-((tetrahydro-2H-pyran-4-yl)oxy)ethyl)-5-methyl-2,4-dioxo-1,2-dihydrothiopheno[2,3-d]pyrimidin-3(4H)-yl)-2-methylpropionic acid]	15 nM	–
Cc1c(C#N)sc2c1c(=O)n(C(C)(C)C(=O)O)c(=O)n2CC(OC1CCOCC1)c1ccccc1OCC1CC1 (stereo not shown) [Example 13, 2-(6-Cyano-1-(2-(2-(cyclopropylmethoxy)phenyl)-2-((tetrahydro-2H-pyran-4-yl)oxy)ethyl)-5-methyl-2,4-dioxo-1,2-dihydrothiopheno[2,3-d]pyrimidin-3(4H)-yl)-2-methylpropionic acid]	36 nM	–
COc1ccccc1C(Cn1c(=O)n(C(C)(C)C(=O)O)c(=O)c2c(C)c(C#N)sc21)OC1CCOCC1 (stereo not shown) [Example 1, 2-(6-Cyano-1-(2-(2-methoxyphenyl)-2-((tetrahydro-2H-pyran-4-yl)oxy)ethyl)-5-methyl-2,4-dioxo-1,2-dihydrothiopheno[2,3-d]pyrimidin-3(4H)-yl)-2-methylpropionic acid]	38 nM	–
Cc1c(C#N)sc2c1c(=O)n(C(C)(C)C(=O)O)c(=O)n2CC(OC1CCOCC1)c1cc(F)ccc1OCCF (stereo not shown) [Example 14, 2-(6-Cyano-1-(2-(5-fluoro-2-(2-fluoroethoxy)phenyl)-2-((tetrahydro-2H-pyran-4-yl)oxy)ethyl)-5-methyl-2,4-dioxo-1,2-dihydrothiopheno[2,3-d]pyrimidin-3(4H)-yl)-2-methylpropionic acid]	7.9 nM	–
CCOc1ccccc1C(Cn1c(=O)n(C(C)(C)C(=O)O)c(=O)c2c(C)c(C#N)sc21)OC1CCOCC1 (stereo not shown) [Example 6, 2-(6-Cyano-1-(2-(2-ethoxyphenyl)-2-((tetrahydro-2H-pyran-4-yl)oxy)ethyl)-5-methyl-2,4-dioxo-1,2-dihydrothiopheno[2,3-d]pyrimidin-3(4H)-yl)-2-methylpropionic acid]	21 nM	–
COc1ccccc1[C@H](Cn1c(=O)n(C(C)(C)C(=O)O)c(=O)c2c(C)c(C#N)sc21)OC1CCOCC1 [Example 3, (R)-2-(6-cyano-1-(2-(2-methoxyphenyl)-2-((tetrahydro-2H-pyran-4-yl)oxy)ethyl)-5-methyl-2,4-dioxo-1,2-dihydrothiopheno[2,3-d]pyrimidin-3(4H)-yl)-2-methylpropionic acid]	11.6 nM	–
Cc1c(C#N)sc2c1c(=O)n(C(C)(C)C(=O)O)c(=O)n2C[C@H](OC1CCOCC1)c1cc(F)ccc1OCCF [Example 21, (R)-2-(6-cyano-1-(2-(5-fluoro-2-(2-fluoroethoxy)phenyl)-2-((tetrahydro-2H-pyran-4-yl)oxy)ethyl)-5-methyl-2,4-dioxo-1,2-dihydrothiopheno[2,3-d]pyrimidin-3(4H)-yl)-2-methylpropionic acid]	6.4 nM	IC50 (recombinant human ACC2): 22 nM

Continued, in another order:

IC50 (recombinant human ACC1)	Compound	also measured
20.7 nM	Cc1c(C#N)sc2c1c(=O)n(C(C)(C)C(=O)O)c(=O)n2CC(OC1CCOCC1)c1cc(F)ccc1OCC#N (stereo not shown) [Example 17, 2-(6-Cyano-1-(2-(2-(cyanomethoxy)-5-fluorophenyl)-2-((tetrahydro-2H-pyran-4-yl)oxy)ethyl)-5-methyl-2,4-dioxo-1,2-dihydrothiopheno[2,3-d]pyrimidin-3(4H)-yl)-2-methylpropionic acid]	–
4.4 nM	CCOc1ccc(F)cc1C(Cn1c(=O)n(C(C)(C)C(=O)O)c(=O)c2c(C)c(C#N)sc21)OC1CCOCC1 (stereo not shown) [Example 15, 2-(6-Cyano-1-(2-(2-ethoxy-5-fluorophenyl)-2-((tetrahydro-2H-pyran-4-yl)oxy)ethyl)-5-methyl-2,4-dioxo-1,2-dihydrothiopheno[2,3-d]pyrimidin-3(4H)-yl)-2-methylpropionic acid]	–
16 nM	COc1ccccc1[C@@H](Cn1c(=O)n(C(C)(C)C(=O)O)c(=O)c2c(C)c(C#N)sc21)OC1CCOCC1 [Example 2, (S)-2-(6-Cyano-1-(2-(2-methoxyphenyl)-2-((tetrahydro-2H-pyran-4-yl)oxy)ethyl)-5-methyl-2,4-dioxo-1,2-dihydrothiopheno[2,3-d]pyrimidin-3(4H)-yl)-2-methylpropionic acid]	–
16.5 nM	COc1ccc(F)cc1C(Cn1c(=O)n(C(C)(C)C(=O)O)c(=O)c2c(C)c(C#N)sc21)OC1CCOCC1 (stereo not shown) [Example 4, 2-(6-Cyano-1-(2-(5-fluoro-2-methoxyphenyl)-2-((tetrahydro-2H-pyran-4-yl)oxy)ethyl)-5-methyl-2,4-dioxo-1,2-dihydrothiopheno[2,3-d]pyrimidin-3(4H)-yl)-2-methylpropionic acid]	–
